Laboratory results as given in patent US9783488B2 (CHDI Foundation, Inc., priority 2013, dated 2017).

Target: human catalytic domain HDAC4 protein (amino acids 648-1032) (Homo sapiens (Human), UniProt P56524)
Test: Inhibition of HDAC4 catalytic domain enzymatic activity, fluorogenic substrate Boc-Lys(Tfa)-AMC
Details: HDAC4 catalytic domain enzyme, read-out: Biochemical HDAC4 IC50
From the text: Analysis of Inhibition of HDAC4 with Class IIa Histone Deacetylase (HDAC) Inhibitors
The potency of Class IIa Histone Deacetylase (HDAC) inhibitors is quantified by measuring the Histone Deacetylase 4 (HDAC4) catalytic domain enzymatic activity using the fluorogenic substrate, Boc-Lys(Tfa)-AMC. The substrate is deacetylated to Boc-Lys-AMC by HDAC4. Cleavage by trypsin results in the release of the fluorophore AMC from the deacetylated substrate. The fluorescence of the sample is directly related to the histone deacetylase activity in the sample.
Serially dilute HDAC inhibitor compounds. […] Stocks of 6 μl aliquots of the 10 mM compound in DMSO are prepared and stored at […]. From one stock aliquot of each compound to be tested and the reference compound, a 16-point serial dilution is prepared according to Table 1 using a 125 μl 16-channel Matrix multi-channel pipette (Matrix Technologies Ltd).
2 μl (200×) of each diluted solution and each control (full activity: 100% DMSO alone or full inhibition 1 mM) is stamped into V-bottomed polypropylene 384-well compound plates using either the Bravo (384-well head from Agilent) or 12.5 μl 16-channel Matrix multi-channel pipette (Matrix Technologies Ltd).
Prepare HDAC4 catalytic domain enzyme (0.2 μg/mL).
Prepare 5× ([…]) Boc-Lys(Tfa)-AMC Substrate. 5× (50 μM) substrate is prepared just prior to the addition to the assay. A 1 mM substrate stock is made by diluting a 100 mM Boc-Lys(Tfa)-AMC in DMSO solution 1:100 by adding it drop-wise to assay buffer (equilibrated to r.t.) while vortexing at slow speed to prevent precipitation. The 5× substrate is prepared by diluting the 1 mM substrate solution 1:20 by adding it drop-wise to assay buffer (equilibrated to r.t.) while vortexing at slow speed to prevent precipitation.
Prepare 3× (30 μM) Developer/Stop Solution.
Assay. 5 μl of each solution of 1:20 diluted compound from above is transferred to a clear bottomed, black, 384-well assay plate using the Bravo or the Janus (384-well MDT head from Perkin Elmer). Using a 16-channel Matrix multi-channel pipette, 35 μl of the working solution of HDAC4 catalytic domain enzyme (0.2 μg/mL in assay buffer) is transferred to the assay plate. […] The assay plate is then shaken for two minutes on an orbital shaker at 900 rpm (rotations per minute). Next the plate is incubated for 15 minutes at 37° C. The reaction is stopped by adding 25 μl of 3× (3 μM) developer/stop solution to the assay plates using either the Bravo, Janus or a 16-channel Matrix multi-channel pipette. Assay plates are then shaken for 5 minutes on an orbital shaker at 1200 rpm. Next, the assay plates are incubated at 37° C. for 1 hour in a tissue culture incubator.

Chain of human catalytic domain HDAC4 protein (amino acids 648-1032) (P56524 648-1032): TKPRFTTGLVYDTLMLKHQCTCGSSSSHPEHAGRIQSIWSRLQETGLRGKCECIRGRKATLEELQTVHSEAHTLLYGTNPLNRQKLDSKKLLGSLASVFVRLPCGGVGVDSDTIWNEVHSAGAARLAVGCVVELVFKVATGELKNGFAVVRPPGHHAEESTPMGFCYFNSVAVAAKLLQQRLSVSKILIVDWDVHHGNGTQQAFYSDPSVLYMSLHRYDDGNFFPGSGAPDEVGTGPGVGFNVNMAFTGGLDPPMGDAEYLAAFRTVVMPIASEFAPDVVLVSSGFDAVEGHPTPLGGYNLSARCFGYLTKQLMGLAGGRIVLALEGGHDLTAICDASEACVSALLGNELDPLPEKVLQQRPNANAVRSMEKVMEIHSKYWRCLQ

IC50	SMILES
0.14 µM	Cc1c(F)cccc1[C@]1(C(=O)NO)CC[C@@H](c2ccc3cnn(C)c3c2)C1 (relative stereo) [Example 56, (1S,3R*)-1-(3-fluoro-2-methylphenyl)-N-hydroxy-3-(1-methyl-1H-indazol-6-yl)cyclopentanecarboxamide]
0.73 µM	Cc1ccccc1C1(C(=O)NO)CCCC1 [Example 24, N-Hydroxy-1-o-tolylcyclopentanecarboxamide]
0.4 µM	Cc1c(F)cccc1[C@]1(C(=O)NO)CC[C@@H](c2ccc3c(F)nn(C)c3c2)C1 (relative stereo) [Example 67, (1S,3R*)-3-(3-fluoro-1-methyl-1H-indazol-6-yl)-1-(3-fluoro-2-methylphenyl)-N-hydroxycyclopentanecarboxamide]

Test system: cellular histone deacetylase enzymatic activity in Jurkat E6-1 cells
Test: Inhibition of cellular HDAC activity in Jurkat E6-1 cells, fluorogenic substrate Boc-Lys(Tfa)-AMC
Format: cell-based
Details: Homo sapiens, read-out: Cell IC50
From the text: Analysis of Inhibition of Cellular HDAC Activity with Class IIa Histone Deacetylase (HDAC) Inhibitors
The potency of Class IIa Histone Deacetylase (HDAC) inhibitors is quantified by measuring the cellular histone deacetylase enzymatic activity using the fluorogenic substrate, Boc-Lys(Tfa)-AMC. After penetration in Jurkat E6-1 cells, the substrate is deacetylated to Boc-Lys-AMC. After cell lysis and cleavage by trypsin, the fluorophore AMC is released from the deacetylated substrate only. The fluorescence of the sample is directly related to the histone deacetylase activity in the sample.
Jurkat E6.1 cell culture and plating. Jurkat E6.1 cells are cultured according to standard cell culture protocols in Jurkat E6.1 Growth Media (RPMI without phenol red, 10% FBS, 1 mM HEPES, and 1 mM Sodium Pyruvate). Jurkat E6.1 cells are counted using a Coulter Counter and resuspended in Jurkat E6.1 growth media at a concentration of 75,000 cells/35 μl. 35 μl or 75,000 cells is seeded into Greiner microtitre assay plates. The plates are then incubated at 37° C. and 5% CO2 while other assay components are being prepared.
Serially dilute HDAC inhibitor compounds. Serial dilutions of the HDAC inhibitors and control reference compound (1-(5-(3-((4-(1,3,4-oxadiazol-2-yl)phenoxy)methyl)-1,2,4-oxadiazol-5-yl)thiophen-2-yl)-2,2,2-trifluoroethanone) are made by first resuspending the lyophilized compound to a final concentration of 10 mM in […]. Stocks of 70 μl aliquots of the 10 mM compound in DMSO are prepared and stored at −20° C. From one stock aliquot of each compound to be tested and the reference compound, a 16-point serial dilution is prepared according to Table 1 using a 125 μl 16-channel Matrix multi-channel pipette.
2 μl (200×) of each diluted solution and each control (full activity: 100% DMSO alone or full inhibition 1 mM) is stamped into V-bottom polypropylene 384-well compound plates using either the Bravo, Janus, or 12.5 μl 16-channel Matrix multi-channel pipette. Each well with the 200× compound solution is diluted 1:20 by the addition of 38 μl Jurkat assay buffer+DMSO (9.5% DMSO, RPMI without phenol red, 0.09% FBS, 9 mM Hepes, and 0.9 mM Sodium Pyruvate equilibrated to r.t.)
Prepare 5× (500 μM) Boc-Lys(Tfa)-AMC substrate. 5× (500 μM) substrate is prepared just prior to the addition to the assay. The 5× substrate is prepared by diluting a 100 mM Boc-Lys(Tfa)-AMC in DMSO solution 1:200 by adding it drop-wise to Jurkat assay medium (RPMI without phenol red, 0.1% FBS, 10 mM Hepes, and 1 mM Sodium Pyruvate equilibrated to 37° C.) while vortexing at slow speed to prevent precipitation.
Prepare 3× Lysis Buffer. 10 mL of 3× lysis buffer is prepared with 8.8 mL of 3× stock lysis buffer (50 mM Tris-HCl, pH 8.0, 137 mM NaCl, 2.7 mM KCl, 1 mM MgCl2, 1% Nonidet P40 Substitute equilibrated to r.t.) and 1.2 mL of 3 mg/mL Trypsin equilibrated to r.t.
Assay. 5 μl of each solution of 1:20 diluted compound from above is transferred to the Greiner microtitre assay plates with 75,000 cells/well using the Bravo. Cells are then incubated for 2 hours at 37° C. and 5% CO2. The assay is then started by adding 10 μl of 5× (500 μM) substrate to the assay plate using either the Bravo or 16-channel Matrix multi-channel pipette. The cells are then incubated for 3 hours at 37° C. and 5% CO2. Next, 25 μl of 3× lysis buffer is added to each well using either the 125 μl 16 channel pipette or the Bravo. The assay plate is then incubated overnight (15-16 hours) at 37° C. and 5% CO2. The following day, the plates are shaken on an orbital shaker for 1 minute at 900 rpm. Finally the top read fluorescence (Excitation: 355 nm, Emission: 460 nm) is measured using PerkinElmer EnVision.

IC50	SMILES
0.23 µM	Cc1c(F)cccc1[C@]1(C(=O)NO)CC[C@@H](c2ccc3cnn(C)c3c2)C1 (relative stereo) [Example 56, (1S,3R*)-1-(3-fluoro-2-methylphenyl)-N-hydroxy-3-(1-methyl-1H-indazol-6-yl)cyclopentanecarboxamide]
8.12 µM	Cc1ccccc1C1(C(=O)NO)CCCC1 [Example 24, N-Hydroxy-1-o-tolylcyclopentanecarboxamide]
0.36 µM	Cc1c(F)cccc1[C@]1(C(=O)NO)CC[C@@H](c2ccc3c(F)nn(C)c3c2)C1 (relative stereo) [Example 67, (1S,3R*)-3-(3-fluoro-1-methyl-1H-indazol-6-yl)-1-(3-fluoro-2-methylphenyl)-N-hydroxycyclopentanecarboxamide]
0.38 µM	Cc1c(F)cccc1[C@]1(C(=O)NO)CC[C@@H](c2ccc3sc(C4CC4)nc3c2)C1 (relative stereo) [Example 80, (1 S,3R*)-3-(2-Cyclopropylbenzo[c]thiazol-5-yl)-1-(3-fluoro-2-methylphenyl)-N-hydroxycyclopentanecarboxamide]
0.19 µM	Cc1c(F)cccc1[C@]1(C(=O)NO)CC[C@@H](c2ccc3c(c2)CN(C2CC2)C3=O)C1 (relative stereo) [Example 59, (1S,3R*)-3-(2-cyclopropyl-1-oxoisoindolin-5-yl)-1-(3-fluoro-2-methylphenyl)-N-hydroxycyclopentanecarboxamide]
0.83 µM	Cc1c(F)cccc1[C@]1(C(=O)NO)CC[C@@H](c2cnn(CCN3CCOCC3)c2)C1 (relative stereo) [Example 47, (1S,3R*)-1-(3-fluoro-2-methylphenyl)-N-hydroxy-3-(1-(2-morpholinoethyl)-1H-pyrazol-4-yl)cyclopentanecarboxamide]
> 50 µM	Cc1c(F)cccc1[C@]1(C(=O)NO)CC[C@H](N2CCCC2)C1 (relative stereo) [Example 88, (1 S,3S*)-1-(3-fluoro-2-methylphenyl)-N-hydroxy-3-(pyrrolidin-1-yl)cyclopentanecarboxamide]
0.61 µM	Cc1c(F)cccc1[C@]1(C(=O)NO)CC[C@H](c2ccccc2)C1 (stereo in doubt) [Example 6, (1S*,3S*)-1-(3-fluoro-2-methylphenyl)-N-hydroxy-3-phenylcyclopentanecarboxamide]
0.29 µM	CCN(CC)CCn1cc([C@@H]2CC[C@@](C(=O)NO)(c3cccc(F)c3C)C2)cn1 (relative stereo) [Example 51, (1S,3R*)-3-(1-(2-(diethylamino)ethyl)-1H-pyrazol-4-yl)-1-(3-fluoro-2-methylphenyl)-N-hydroxycyclopentanecarboxamide]
0.16 µM	Cc1c([C@]2(C(=O)NO)CC[C@@H](c3ccc4cnn(C)c4c3)C2)ccc(F)c1F (relative stereo) [Example 86, (1S,3R*)-1-(3,4-difluoro-2-methylphenyl)-N-hydroxy-3-(1-methyl-1H-indazol-6-yl)cyclopentanecarboxamide]
0.44 µM	Cc1c(F)cccc1[C@@]1(C(=O)NO)CC[C@H](c2ccccc2)C1 (stereo in doubt) [Example 4, (1R*,3S*)-1-(3-fluoro-2-methylphenyl)-N-hydroxy-3-phenylcyclopentanecarboxamide]
0.48 µM	Cc1ccccc1[C@H]1CC[C@@](C(=O)NO)(c2cccc(F)c2C)C1 (relative stereo) [Example 8, (±)-(1S*,3S*)1-(3-fluoro-2-methylphenyl)-N-hydroxy-3-(o-tolyl)cyclopentane carboxamide]
0.38 µM	Cc1c(F)cccc1[C@]1(C(=O)NO)CC[C@H](c2ccc3sc(C4CC4)nc3c2)C1 (relative stereo) [Example 79, (1S,3S*)-3-(2-Cyclopropylbenzo[d]thiazol-5-yl)-1-(3-fluoro-2-methylphenyl)-N-hydroxycyclopentanecarboxamide]
0.15 µM	CCCN(CCC)C[C@@H](C)NC(=O)c1ccc([C@H]2CC[C@@](C(=O)NO)(c3cccc(F)c3C)C2)cc1 (relative stereo) [Example 53, N—((R)-1-(dipropylamino)propan-2-yl)-4-((1S*,3S)-3-(3-fluoro-2-methylphenyl)-3-(hydroxycarbamoyl)cyclopentyl)benzamide]
0.18 µM	CCCN(CCC)C[C@@H](C)NC(=O)c1ccc([C@@H]2CC[C@@](C(=O)NO)(c3cccc(F)c3C)C2)cc1 (relative stereo) [Example 52, N—((R)-1-(dipropylamino)propan-2-yl)-4-((1R*,3S)-3-(3-fluoro-2-methylphenyl)-3-(hydroxycarbamoyl)cyclopentyl)benzamide]
> 50 µM	Cc1c(F)cccc1[C@]1(C(=O)NO)CC[C@@H](N2CCCC2)C1 (relative stereo) [Example 87, (1 S,3R*)-1-(3-fluoro-2-methylphenyl)-N-hydroxy-3-(pyrrolidin-1-yl)cyclopentanecarboxamide]
7.85 µM	Cc1c(F)cccc1[C@]1(C(=O)NO)CC[C@@H](c2ccccc2)C1 (stereo in doubt) [Example 5, (1S*,3R*)-1-(3-fluoro-2-methylphenyl)-N-hydroxy-3-phenylcyclopentanecarboxamide]
1.12 µM	Cc1c(F)cccc1[C@@]1(C(=O)NO)CC[C@@H](c2ccccc2)C1 (stereo in doubt) [Example 7, (1R*,3R*)-1-(3-fluoro-2-methylphenyl)-N-hydroxy-3-phenylcyclopentanecarboxamide]
